Results reported in paper PMC9623576, “Semisynthesis and Evaluation of Anti-Inflammatory Activity of the Cassane-Type Diterpenoid Taepeenin F and of Some Synthetic Intermediates” (Journal of Natural Products, 2022).
“And” between values parts separate entries of the source, which are not always exact repeats. Equal values may be shown once.

Columns and labels:
[1] = system: B16-F10 cells; assay: B16-F10 cell-cycle arrest and distribution, PI flow cytometry; format: cell-based, murine; settings: B16-F10, 72 h
Procedure: The effects of the compounds 16 and 21 on the B16-F10 cell cycle were investigated using flow cytometry through propidium iodide staining. With this assay, we can determine a possible cytostatic effect related to the cytotoxic response and also measure DNA ploidy as well as alterations of cell-cycle profiles.[32]
The method used to quantify the amount of DNA in the different phases of the cell cycle (G0/G1, S, and G2/M) was performed by flow cytometry after propidium iodide staining (PI).[37] […] After treatment, the cells were washed twice with PBS, trypsinized, and resuspended in 1× TBS (10 mM Tris and 150 mM NaCl). After that, Vindelov buffer (100 mM Tris, 100 mM NaCl, 10 mg/mL Rnase, and 1 mg/mL PI, at pH 8) was added. Cells were stored on ice and, just before measurement, were stained with 20 μL of 1 mg/mL PI solution. Approximately, 10 × 10^3 cells were analyzed in each experiment. The experiments were performed three times with two replicates per assay. Finally, samples were analyzed using a flow cytometer, and the number of cells in each stage of the cell cycle was estimated by fluorescence-associated cell sorting (FACS) at 488 nm in an Epics XL flow cytometer (Coulter Corporation, Hialeah, FL, USA).

[2] = system: NO production in LPS-activated RAW 264.7 macrophage murine cells; assay: Inhibition of NO (nitrite) release, Griess reaction; format: cell-based
Procedure: The concentrations of nitrites were determined by the Griess reaction.
A stock solution was frozen and stored at […]. Before the experiments, this solution was diluted in cell-culture medium to the adequate concentrations for each experiment. […] For nitrite assay, subcytotoxic concentrations (3/4IC50, 1/2IC50, and 1/4IC50), were used to ensure that the NO inhibitory potential was not due to a possible cytotoxic effect. The concentrations of 3/4IC50, 1/2IC50, and 1/4IC50 were used for the cell-cycle analysis. All experiments were measured and compared with control (untreated cells after 24, 48, or 72 h of treatment.)
Nitrites production was analyzed through the Griess reaction. This nitrite concentration was used as an indicator of NO production.[35] Briefly, RAW 264.7 cells were plated at 6 × 10^3 cells/well in 24-well cell culture plates and supplemented with 10 μg/mL of lipopolysaccharide (LPS). […] The supernatants were collected at 48 and 72 h, to determine their nitrite concentrations and/or stored at −80 °C for further use.
The Griess reaction was performed taking 150 μL of supernatant test samples or sodium nitrite standard (0–120 μM) and mixed with 25 μL of Griess reagent A (0.1% N,N-(1-naphthyl) ethylenediaminedihydrochloride) and 25 μL of Griess reagent B (1% sulfanilamide in 5% of phosphoric acid), in a 96-well plate. After 15 min of incubation at room temperature, the absorbance was measured at 540 nm in an ELISA plate reader (Tecan Sunrise MR20–301, TECAN, Austria). The absorbance was referred to a nitrite standard curve to determine the concentration of nitrite in the supernatant of each experimental sample. The percentage of NO production was determined, assigning 100% at the increase between negative control (untreated cells) and positive control (cells only treated with 10 μg/mL of LPS).

SMILES	cells in the G0/G1 phase ([1]; IC80 concentration) [%]	cells in the S phase ([1]; IC80 concentration) [%]	decrease of S phase cells compared to untreated control cells ([1]; IC80 concentration) [%]	increase of G0/G1 cells over untreated control cells ([1]; IC80 concentration) [%]	inhibition of NO release ([2]; 48 h, 1/2IC50 concentration) [%]	inhibition of NO release ([2]; 48 h, 3/4IC50 concentration)	inhibition of NO release ([2]; 72 h, 3/4IC50 concentration) [%]	cells in the G0/G1 phase ([1]; IC50 concentration) [%]	cells in the S phase ([1]; IC50 concentration) [%]	decrease of S phase cells compared to untreated control cells ([1]; IC50 concentration) [%]	increase of G0/G1 cells over untreated control cells ([1]; IC50 concentration) [%]
COC(=O)[C@]1(C)CCC[C@@]2(C)[C@H]1CC=C1C(C)=C(C(C)C)C(=O)C[C@@H]12 [Compound 16, (1R,4aR,10aR)-Methyl 7-isopropyl-1,4a,8-trimethyl-6-oxo-1,2,3,4,4a,4b,5,6,10,10a-decahydrophenanthrene-1-carboxylate]	76.36	22.42	16.79	18.24	59.95	85.13%	80				
COC(=O)[C@]1(C)CCC[C@]2(C)c3cc(O)c(C=O)c(C)c3CC[C@@H]12 [Compound 21, (1R,4aS,10aR)-Methyl 7-formyl-6-hydroxy-1,4a,8-trimethyl-1,2,3,4,4a,9,10,10a-octahydrophenanthrene-1-carboxylate]	70.55	29.45	9.76	12.43		76.49% and 76%	91	71.87	27.95	11.26	13.75
